Measured values as given in ChEMBL document CHEMBL4130486, “Design, synthesis and immunological evaluation of novel amphiphilic desmuramyl peptides” (Eur J Med Chem, 2017).
The source made the active and inactive calls. The rule behind the calls is not given here.

Experiments:
THP-1 [1] = assay: Immunomodulatory activity in human THP1 cells assessed as increase in ICAM1 expression at 20 uM incubated for 21 hrs by immunostaining and flow cytometry; type: functional, cell-based
THP-1 [2] = assay: Immunomodulatory activity in human THP1 cells assessed as increase in LPS-induced ICAM1 expression at 1 to 32 uM uM incubated for 21 hrs by immunostaining and flow cytometry; type: functional, cell-based
THP-1 [3] = assay: Immunomodulatory activity in PMA-differentiated human THP1 cells assessed as increase in ICAM1 expression by measuring fluorescence intensity at 20 uM incubated for 21 hrs by immunostaining and flow cytometry (reference value: 602.95 No unit); type: functional
THP-1 [4] = assay: Immunomodulatory activity in PMA-differentiated human THP1 cells assessed as increase in TNFalpha production at 1 to 30 uM incubated for 24 hrs by ELISA; type: functional, cell-based
THP-1 [5] = assay: Immunomodulatory activity in PMA-differentiated human THP1 cells assessed as increase in TNFalpha production by measuring TNFalpha level at 15 uM incubated for 24 hrs by ELISA; type: functional
THP-1 [6] = assay: Immunomodulatory activity in PMA-differentiated human THP1 cells assessed as increase in TNFalpha production at 30 uM incubated for 24 hrs by ELISA; type: functional, cell-based
THP-1 [7] = assay: (§1) Immunomodulatory activity in PMA-differentiated human THP1 cells assessed as increase in LPS-induced ICAM1 expression by measuring fluorescence intensity at 20 uM pre-incubated for 1 hr before LPS stimulation and further incubated for 20 hrs by immunostaining and flow cytometry relative to LPS alone; type: functional, cell-based
THP-1 [8] = assay: Immunomodulatory activity in human THP1 cells assessed as increase in LPS-induced ICAM1 expression at 16 uM uM incubated for 21 hrs by immunostaining and flow cytometry; type: functional
THP-1 [9] = assay: Immunomodulatory activity in PMA-differentiated human THP1 cells assessed as increase in LPS-induced ICAM1 expression by measuring fluorescence intensity at 8 uM pre-incubated for 1 hr before LPS stimulation and further incubated for 20 hrs by immunostaining and flow cytometry relative to LPS alone; type: functional
THP-1 [10] = assay: as §1, with “at <=4” for “at 20”; type: functional, cell-based
THP-1 [11] = assay: as §1, with “at =>16” for “at 20”; type: functional, cell-based
THP-1 [12] = assay: Toxicity in PMA-differentiated human THP1 cells assessed as cell death at 0.1 to 64 uM by trypan blue dye based assay; conditions: thp-1, 64 µM

CCCCCCNC(=O)CC[C@@H](NC(=O)[C@H](C)NC(=O)COc1cccc(NCCCO)c1)C(N)=O
Activity (THP-1 [1]): Active
Activity (THP-1 [2]): Active
Flu intensity (THP-1 [3]): 885.76
Activity (THP-1 [4]): Active
Activity (THP-1 [5]): 3622 pg/mL
Activity (THP-1 [6]): inactive

CCCCOC(=O)[C@@H](CCC(N)=O)NC(=O)[C@H](C)NC(=O)[C@@H](C)O[C@H]1[C@H](O)[C@@H](CO)OC(O)[C@@H]1NC(C)=O (some centres not stated) [MURABUTIDE]
Activity (THP-1 [1]): Active
Flu intensity (THP-1 [3]): 1436.05
Activity (THP-1 [7]): Active
Activity (THP-1 [5]): 2694 pg/mL
Activity (THP-1 [6]): inactive

CCCCCCNC(=O)CC[C@@H](NC(=O)[C@H](C)NC(=O)COc1cccc(N(CCCO)CCCO)c1)C(N)=O
Activity (THP-1 [1]): Active
Activity (THP-1 [8]): <=46%
Activity (THP-1 [2]): Active
Flu intensity (THP-1 [3]): 777.29
Activity (THP-1 [9]): <=33%
Activity (THP-1 [10]): Active
Activity (THP-1 [11]): inactive
Activity (THP-1 [4]): Active
Activity (THP-1 [5]): 3606 pg/mL
Activity (THP-1 [12]): Non-Toxic
Activity (THP-1 [6]): inactive
